# Like-named read-outs stand apart in the source and are kept apart here.
# Assays:
# [1] = tested on: Plasmodium falciparum 3D7 asexual blood stage; details: for screening concentrations at which red blood cell (RBC) lysis was witnessed: human; for IC50: read-out: Antiplasmodial IC50 (ABS), PBox compounds, P. falciparum 3D7
# P. falciparum ABS = details: cited from earlier work; for EC50: ChEMBL Data
# [2] = tested on: P. falciparum stage V gametocytes; details: cited from earlier work; for IC50: stage V gametocytes, ref PBox supporting information, read-out: PF stage V GAMS PBox IC50
# HEK293 cells = test: HEK293 resazurin cell cytotoxicity assay; details: for IC50: Homo sapiens; for percent inhibition at the top screening dose, HEK293: reference compound set
# [3] = tested on: NF54-pfs16-LUC-GFP stage IV gametocytes; test: Plasmodium falciparum late stage gametocyte (LSG) image-based assay; assay type: cell-based
# [4] = tested on: T. cruzi intracellular amastigotes; test: Intracellular anti-Trypanosoma cruzi image-based assay (amastigotes); assay type: cell-based; details: Trypanosoma cruzi
# 3T3 host cells = test: T. cruzi assay, activity against 3T3 host cells; assay type: cell-based; details: reference compound set; IA = inactive at 16.4 μM
# Protocol: page 4: […] Puromycin, 71 chloroquine, artesunate, DHA, pyronaridine and pyrimethamine were also tested in 72 IC50 format to act as internal reference compounds. 73 74 Intracellular anti-Trypanosoma cruzi Assay Protocol 75 The host cell cytoplasm, in which the parasite resides, is identified by the fluorescent 76 marker, HCS CellMask Green. Parasite and host cell nuclei are detected with the 77 fluorescent DNA intercalator, Hoechst 33342. The Opera® High Content Screening 78 System is used to take images of wells and a spot detection algorithm is used to 79 identify parasites within the cytoplasm. 80 81 Briefly, 1x 10^3 3T3 cells were added to collagen coated 384-well plates and following 82 24 hrs incubation at 37 °C, a multiplicity of infection (MOI) of 5:1 parasite: host cells 83 were added to the plate using a Multidrop liquid handler. Following additional 24 hrs 84 incubation, extracellular parasites were washed from the plates and RPMI with no […] 86 added to all wells. The final volume of media in the primary screening assay, before 87 addition of compound, was modified slightly to 55 µL. One µL of compounds, provided 88 by Compounds Australia, were diluted by the addition of 25 µL of sterile water. This […] 91 donovani). Five microliters of this dilution was added to assay plates. The final […] The final concentrations of compounds in the […] Following 48 hrs incubation in the presence 97 of compounds, wells were fixed, stained and read on the Opera® High Content 98 Screening System to assess compound activity. 99 The Z′-factor, as a measure of assay reproducibility, was determined from a plate […] The positive control used to calculate activity against […] To 103 assess the sensitivity of the T. cruzi assay, activity of the reference compounds 104 benznidazole, NFX, posaconazole and puromycin were determined. […] 108 resazurin as a measure of parasite viability. 109 T. b. brucei trypanosomes were cultured in vitro in HM1-9 medium supplemented with […] Fifty-five µL of logarithmic phase […] 112 incubated for 24 hrs at 37°C /5% CO2. Compounds were subsequently added to the […] Following […] 116 37°C / 5% CO2 followed by 22 hrs at room temperature. […] The percent
# [5] = tested on: T. b. brucei 427 bloodstream trypanosomes; test: T. b. brucei resazurin viability assay; assay type: cell-based, Trypanosoma brucei brucei; details: Trypanosoma brucei
# [6] = tested on: L. donovani MHOM/IN/80/DD8 intracellular amastigotes; test: Leishmania donovani intracellular amastigote assay in THP-1 cells; assay type: cell-based; details: for IC50: Leishmania donovani, reference compound set, IA = inactive at 20 μM
# [7] = tested on: Plasmodium falciparum 3D7 asexual blood stage; test: microbe, parasite or virus in culture
# HepG2 = details: ref PBox supporting information, cited from earlier work; for CC50: read-out: HepG2 PBox CC50 µM
# liver stage = details: ref Pbox supporting information; cited from earlier work
# [8] = P. falciparum 3D7, ref PBox supporting information, read-out: Pf 3D7 Pbox IC50
# [9] = HEK293, read-out: HEK % Inhibition 20uM/IC50 Discovery Biology (IA)
# [10] = Plasmodium falciparum, NF54, read-out: IC50 P. falciparum NF54 LSG, reference compound set, 11-point dose response, IA = inactive at 20 μM
# [11] = reference compound set, IA = inactive at 16.4 μM, read-out: IC50 T. cruzi intracellular amastigotes
# [12] = THP-1, read-out: IC50 L. donovani n = 1, first test
# [13] = THP-1, read-out: IC50 L. donovani n = 2, second test
# [14] = 3D7, read-out: IC50 P. falciparum 3D7 ABS, reference compound set, 11-point dose response, IA = inactive at 20 μM
# [15] = 3D7, read-out: Antiplasmodial IC50 (ABS), PBox compounds, P. falciparum 3D7
# [16] = 3D7, read-out: activity against P. falciparum (novel antiplasmodial actives of the tuberculosis set)
# [17] = reference compound set, IA = inactive at 20 μM, read-out: IC50 T. brucei brucei trypomastigotes
# [18] = 3D7, read-out: IC50 P. falciparum 3D7 ABS
smiles,measurement,setting,value
CCc1ccc(C(NCc2nc(N)nc(N(C)C)n2)C(C)C)cc1 (centres unmarked) [MMV1019989],screening concentrations at which red blood cell (RBC) lysis was witnessed,[1],≥ 2 µM
same,IC50,P. falciparum ABS; [8],> 2000 nM
same,IC50,[2],76 nM
same,IC50,HEK293 cells; [9],> 20 µM
"CCN(CC)CCCCCCNc1cc(OC)cc2c(C)ccnc12 [Sitamaquine, reference compound]",IC50,[3]; [10],0.982 µM
same,IC50,[4]; [11],> 16.4 µM
same,IC50,3T3 host cells,> 16.4 µM
same,inhibition at 20 µM,"[5]; reference compound set, 20 μM, read-out: percent inhibition at the top screening dose, T. brucei brucei",91%
same,IC50,[6]; [12],> 20 µM
same,IC50,[6]; [13],> 20 µM
same,IC50,[7]; [14],2030 nM
same,"percent inhibition at the top screening dose, HEK293",HEK293 cells,100%
CNC(=O)CNc1nc(-c2ccccn2)nc2scc(-c3ccccc3)c12 [MMV1029203],screening concentrations at which red blood cell (RBC) lysis was witnessed,[1],≥ 2 µM
same,IC50,P. falciparum ABS; [8],> 2000 nM
same,IC50,[2],840 nM
same,IC50,HEK293 cells; [9],> 20 µM
Cc1cnc(N2CCN[C@@H](Cc3ccccc3)C2)nc1Oc1ccc(-n2ccnc2)cc1 [MMV687765],IC50,"[3]; Plasmodium falciparum, NF54, read-out: Pf Stage IV GAMS Discovery Biology IC50 µM, stage IV gametocytes, Discovery Biology",4.28 µM
same,IC50,[1],2010 nM
same,CC50,HepG2; HepG2 cytotoxicity,14.1 µM
same,IC50,[7]; [15],2000 nM
same,IC50,[7]; [16],< 2000 nM
CCNC(=O)C(C)Nc1nc(-c2cccnc2)nc2sc(C)c(C)c12 (centres unmarked) [MMV1037162],screening concentrations at which red blood cell (RBC) lysis was witnessed,[1],≥ 2 µM
same,IC50,P. falciparum ABS; [8],> 2000 nM
same,IC50,[2],610 nM
same,IC50,HEK293 cells; [9],> 20 µM
"N=C(N)c1ccc(OCCCCCOc2ccc(C(=N)N)cc2)cc1 [Pentamidine, reference compound]",IC50,[3]; [10],1.43 µM
same,IC50,[4]; [11],> 16.4 µM
same,IC50,3T3 host cells,> 16.4 µM
same,IC50,"[5]; in-house control stock, not the PBox sample, read-out: IC50 of standard in-house assay control, T. brucei brucei",< 1 nM
same,IC50,[5]; [17],< 20 nM
same,IC50,[6]; [12],> 20 µM
same,IC50,[6]; [13],> 20 µM
same,activity against L. donovani at 20 μM,"[6]; PBox sample, 20 μM",did not show activity
same,IC50,[7]; [18],10 nM
same,"percent inhibition at the top screening dose, HEK293",HEK293 cells,75%
c1ccc(C[C@@H]2CN(c3nccc(Oc4ccc(-n5ccnc5)cc4)n3)CCN2)cc1 [MMV687749],IC50,[1],2080 nM
same,CC50,HepG2; HepG2 cytotoxicity,29 µM
same,IC50,[7]; [15],2000 nM
same,IC50,[7]; [16],< 2000 nM
Cc1ccc(-c2cc(C(=O)Nc3cccnc3)c3cc(Br)ccc3n2)cc1 [MMV016838],activity in the Discovery Biology stage IV gametocyte (LSG) assay,[3],not to be active
same,activity in the Discovery Biology ABS assay,[1],not to be active
same,IC50,"P. falciparum ABS; Pf 3D7, ref Pathogen Box supporting information, read-out: Pf 3D7 Pbox IC50",100 nM
same,"activity against gametocytes (stage V), PBox supporting information",[2]; ref Pbox supporting information,known to be active
same,"activity against liver stage, PBox supporting information",liver stage,known to be active
O=C(C1CCN(c2nnnn2-c2ccccc2)CC1)N1CCc2ccccc2C1 [MMV009135],activity in the Discovery Biology stage IV gametocyte (LSG) assay,[3],did not show any activity
same,activity in the Discovery Biology ABS assay,[1],did not show any activity
same,EC50,"P. falciparum ABS; NITD, read-out: NITD (ref 94) EC50",1300 nM
same,EC50,"P. falciparum ABS; TCMDC, read-out: TCMDC (ref 93) EX50",710 nM
COc1ccc(OC)c(NCc2ccc3nc(N)nc(N)c3c2Cl)c1 [MMV675968],IC50,"[4]; intracellular amastigotes, read-out: T cruzi Discovery Biology IC50",1.33 µM
same,IC50,[5]; read-out: T b.brucei Discovery Biology IC50,2070 nM
same,SI HEK (P. falciparum 3D7),[1]; HEK293,7.4
same,SI HepG2 (P. falciparum 3D7),[1]; HEPG2 (PBox data),113
same,HepG2 PBox CC20,HepG2; HepG2,3.4 µM
same,IC50,[7]; [15],30 nM
same,IC50,"[7]; 3D7, read-out: Pf 3D7 Discovery Biology IC50, P. falciparum 3D7 asexual blood stage",33 nM
same,IC50,"HEK293 cells; HEK293, read-out: HEK % Discovery Biology IC50",0.221 µM
C[C@H](C(N)=O)N1CCCC[C@@H]1c1ccc(OCc2cccc(F)c2)cc1 [MMV676270],activity in the Discovery Biology stage IV gametocyte (LSG) assay,[3],no activity
same,activity in the Discovery Biology ABS assay,[1],no activity
same,EC50,"P. falciparum ABS; P. falciparum, read-out: TCMDC (ref 93) EX50",990 nM
same,IC50,P. falciparum ABS; read-out: literature ABS activity,990 nM
same,IC50,liver stage,1770 nM
same,CC50,HepG2,> 10 µM
same,IC50,HEK293 cells; [9],> 20 µM
"[H]/N=C(/N)N[C@H]1[C@H](O)[C@@H](O)[C@H](O[C@@H]2O[C@@H](C)[C@](O)(C=O)[C@H]2O[C@@H]2O[C@@H](CO)[C@H](O)[C@@H](O)[C@@H]2NC)[C@@H](N/C(N)=N\[H])[C@@H]1O [Streptomycin, reference compound]",inhibition at 20 µM,"[3]; Plasmodium falciparum, NF54, read-out: percent inhibition at the top screening dose, P. falciparum NF54 LSG",41%
same,IC50,[4]; [11],> 16.4 µM
same,IC50,3T3 host cells,> 16.4 µM
same,IC50,[5]; [17],> 20000 nM
same,IC50,[6]; [12],> 20 µM
same,IC50,[6]; [13],> 20 µM
same,IC50,[7]; [18],> 20000 nM
"O=C(C1CCCCC1)N1CC(=O)N2CCc3ccccc3C2C1 (centres unmarked) [Praziquantel, reference compound]",IC50,[3]; [10],> 20 µM
same,IC50,[4]; [11],> 16.4 µM
same,IC50,3T3 host cells,> 16.4 µM
same,IC50,[5]; [17],> 20000 nM
same,IC50,[6]; [12],> 20 µM
same,IC50,[6]; [13],> 20 µM
same,IC50,[7]; [18],> 20000 nM
"OC(c1cc(C(F)(F)F)nc2c(C(F)(F)F)cccc12)C1CCCCN1 (centres unmarked) [Mefloquine, reference compound]",IC50,[3]; [10],5.61 µM
same,IC50,[4]; [11],4.7 µM
same,Emax,"[4]; reference compound set, read-out: T. cruzi Emax (maximal % inhibition plateau in dose response curve)",99%
same,IC50,3T3 host cells,> 16.4 µM
same,IC50,[5]; [17],330 nM
same,IC50,[6]; [12],5.17 µM
same,IC50,[6]; [13],6.58 µM
same,IC50,[7]; [14],< 16 nM
"O=C(Cn1ccnc1[N+](=O)[O-])NCc1ccccc1 [Benznidazole, reference compound]",IC50,[3]; [10],> 20 µM
same,inhibition at 16.4 µM,"[4]; reference compound set, 16.4 μM, read-out: percent inhibition at the top screening dose, T. cruzi intracellular amastigotes",94%
same,IC50,3T3 host cells,> 16.4 µM
same,IC50,[5]; [17],> 20000 nM
same,IC50,[6]; [12],> 20 µM
same,IC50,[6]; [13],> 20 µM
same,IC50,[7]; [18],> 20000 nM

# Source: publication PMC5571359, “Screening the Medicines for Malaria Venture Pathogen Box across Multiple Pathogens Reclassifies Starting Points for Open-Source Drug Discovery” (Antimicrobial Agents and Chemotherapy, 2017)
